Data from US20200062696A1, “COMPOSITIONS AND METHODS FOR INHIBITING RETICULON 4” (THE REGENTS OF THE UNIVERSITY OF CALIFORNIA, priority 2017, published 2020).

What was measured:
[1] = test system: SW620 colorectal cancer cells; experiment: Serum-free cell survival of SW620 cells (Hoescht staining); assay type: cell-based; conditions: Homo sapiens, SW-620, cysteine-reactive fragment 50 μM, 48 h, vs DMSO, average of n = 3/group, read-out: SW620 survival Ave
Protocol: (§1) Cell Culture. SW620 cells were purchased from ATCC. SW620 cells were grown in L-15 media with 10% fetal bovine serum (FBS) in ambient CO2. U2OS cells were grown in DMEM media supplemented with 10% FBS at 37° C. with 5% CO2.
(§2) Survival and Proliferation Assays. Cells were plated the evening before the experiment, and allowed to adhere overnight. For serum-free cell survival assays, cells were plated in media not containing FBS. For cell proliferation assays, cells were plated in regular media. For the chemical genetics screen, cells were treated with either DMSO or the cysteine-reactive fragment for 48 h and cell viability was assessed by Hoescht stain using our previously described methods

[2] = test system: SW620 colorectal cancer cells; experiment: Cell proliferation of SW620 cells (Hoescht staining); assay type: cell-based; conditions: Homo sapiens, SW-620, cysteine-reactive fragment 50 μM, 48 h, vs DMSO, average of n = 3/group, read-out: SW620 proliferation Ave
Protocol: as §1, §2

`C=CC(=O)NCCCSC` [DKM 3-12, N-(3-(methylthio)propyl)acrylamide] gave a viability at 50 µM [1] of 129% and an activity at 50 µM [2] of 106%.
`C=CC(=O)NCCCCCCCCCC` [TRH 1-12, N-decylacrylamide] showed a viability at 50 µM [1] of 49% and an activity at 50 µM [2] of 89%.
Work on `C=CC(=O)NCC(OCC)OCC` [DKM 3-9, N-(2,2-diethoxyethyl)acrylamide] yielded a viability at 50 µM [1] of 75% and an activity at 50 µM [2] of 100%.
For `C=CC(=O)N1CCCC1` [DKM 2-48, 1-(pyrrolidin-1-yl)prop-2-en-1-one], the viability at 50 µM [1] was 90% and the activity at 50 µM [2] was 85%.
`C=CC(=O)N1CCc2ccccc21` [DKM 2-101, 1-(indolin-1-yl)prop-2-en-1-one] showed a viability at 50 µM [1] of 39% and an activity at 50 µM [2] of 96%.
For `O=C(CCl)NCc1ccccc1Cl` [DKM 2-94, 2-Chloro-N-(2-chlorobenzyl)acetamide], the viability at 50 µM [1] was 43% and the activity at 50 µM [2] was 32%.
`C=CC(=O)N1CCC(C#N)CC1` [DKM 3-11, 1-acryloylpiperidine-4-carbonitrile] gave a viability at 50 µM [1] of 120% and an activity at 50 µM [2] of 118%.
Work on `C=CC(=O)NC1CCCC1` [DKM 2-108, N-cyclopentylacrylamide] yielded a viability at 50 µM [1] of 61% and an activity at 50 µM [2] of 95%.
Work on `C=CC(=O)NC/C=C(\C)CCC=C(C)C` [DKM 3-42, (E)-N-(3,7-dimethylocta-2,6-dien-1-yl)acrylamide] yielded a viability at 50 µM [1] of 104% and an activity at 50 µM [2] of 112%.
With `C=CC(=O)Nc1ccc(C(C)=O)cc1` [DKM 3-7, N-(4-acetylphenyl)acrylamide] the viability at 50 µM [1] was 51% and the activity at 50 µM [2] was 100%.
In the case of `C=CC(=O)NCc1ccccc1Cl` [DKM 2-60, N-(2-chlorobenzyl)acrylamide], the viability at 50 µM [1] was 108% and the activity at 50 µM [2] was 100%.
Work on `C=CC(=O)N1CCC(OC)CC1` [DKM 2-109, 1-(4-methoxypiperidin-1-yl)prop-2-en-1-one] yielded a viability at 50 µM [1] of 140% and an activity at 50 µM [2] of 96%.
Compound `C=CC(=O)NCCCOC` [DKM 2-103, N-(3-methoxypropyl)acrylamide] has a viability at 50 µM [1] of 135% and an activity at 50 µM [2] of 112%.
Compound `C=CC(=O)NCc1ccccc1` [DKM 2-31, N-benzylacrylamide] has a viability at 50 µM [1] of 89% and an activity at 50 µM [2] of 116%.
In the case of `C=CC(=O)NC(C)CCc1ccccc1` (centres unmarked) [DKM 2-32, N-(4-phenylbutan-2-yl)acrylamide], the viability at 50 µM [1] was 91% and the activity at 50 µM [2] was 114%.
`C=CC(=O)NCc1ccc(C(F)(F)F)cc1` [DKM 2-116, N-(4-(trifluoromethyl)benzyl)acrylamide] was tested, and the viability at 50 µM [1] was 123% and the activity at 50 µM [2] was 90%.
With `C=CC(=O)Nc1ccc(SC)cc1` [DKM 3-10, N-(4-(methylthio)phenyl)acrylamide] the viability at 50 µM [1] was 41% and the activity at 50 µM [2] was 79%.
`C=CC(=O)NCc1ccc(F)cc1` [DKM 2-34, N-(4-fluorobenzyl)acrylamide] was tested, and the viability at 50 µM [1] was 78% and the activity at 50 µM [2] was 105%.
Compound `C=CC(=O)N1CCOCC1` [DKM 2-49, 1-morpholinoprop-2-en-1-one] has a viability at 50 µM [1] of 80% and an activity at 50 µM [2] of 109%.
In the case of `C=CC(=O)NCc1ccc2c(c1)OCO2` [DKM 3-43, N-(benzo[d][1,3]dioxol-5-ylmethyl)acrylamide], the viability at 50 µM [1] was 52% and the activity at 50 µM [2] was 94%.
`O=C(CCl)NCc1ccc(F)cc1` [DKM 2-80, 2-chloro-N-(4-fluorobenzyl)acetamide] gave a viability at 50 µM [1] of 47% and an activity at 50 µM [2] of 48%.
With `C=CC(=O)Nc1ccc(-c2ccc(CC)cc2)cc1` [DKM 3-16, N-(4′-ethyl-[1,1′-biphenyl]-4-yl)acrylamide] the viability at 50 µM [1] was 34% and the activity at 50 µM [2] was 60%.
`C=CC(=O)Nc1ccc(OC)cc1` [TRH 1-32, N-(4-methoxyphenyl)acrylamide] showed a viability at 50 µM [1] of 55% and an activity at 50 µM [2] of 100%.
Compound `C=CC(=O)NC(C)CC` (centres unmarked) [DKM 3-32, N-(sec-butyl)acrylamide] has a viability at 50 µM [1] of 70% and an activity at 50 µM [2] of 95%.
`C=CC(=O)N1CCN(c2ccc(C(C)=O)cc2)CC1` [DKM 3-29, 1-(4-(4-acetylphenyl)piperazin-1-yl)prop-2-en-1-one] showed a viability at 50 µM [1] of 79% and an activity at 50 µM [2] of 121%.
